Assay results as given in patent publication US11358965B2, “EGFR dimer disruptors and use of the same” (THE REGENTS OF THE UNIVERSITY OF MICHIGAN, priority 2018, dated 2022).
Read-outs that look alike come from different tables or passages of the source.

Tests used:
[1] = system: cells; test: Cell Titer Blue % cell viable (24 hrs); type: cell-based; conditions: 24 h, Conc 3.75 μM
Protocol: The viability of cells upon treatment was assessed by CellTiter-Blue® reagent following the manufacturer's protocol in RKO, UM10B, UM1, MCR5, and UMCC92 cells. Briefly, 10,000 cells were plated in 96-well plate in quadruplets. One day after seeding, cells were treated with a range of concentrations (0.1 to 30 micromolar). […] Only the viable cells convert the redox dye (reszurin) into a fluorescent product (resofurin). The emission of fluorescence (excitation 560 nm) was measured at […]. The IC50 value was calculated as the mean concentration of compounds required to inhibit cell proliferation as measured by the fluorescence at […] by 50 percent compared to the vehicle-treated controls.

[2] = system: HCT-116; test: NCI 60 cell line screen, HCT-116; type: cell-based, human; conditions: Colon Cancer
Protocol: (§1) The activity of Compound 8C was tested against 60 different human tumor cell lines at the National Cancer Institute, using the standard NCI 60 screening protocol.

[3] = system: UACC-62; test: NCI 60 cell line screen, UACC-62; type: cell-based, human; conditions: Melanoma
Protocol: as §1

[4] = Pharmacokinetics in tumor and plasma, NCI-H1975 xenograft mice; type: in vivo, nude mice; conditions: for half-life: nude, mouse, ip
Protocol: The IC50 and IC90 for PC9-AZR, and HCC827-AZR, range from ˜1.5 to ˜4 μM (see FIG. 7A). It is interesting to note that the peak plasma concentration was 5.4±1.5 μM for 30 minutes. […] Prolonged drug accumulation in tumors despite rapid systemic clearance is ideal for therapeutic use. The data at the 24 hour time point indicate that the agent may be suitable for daily administration. After observing selective accumulation of Compound 8C in tumors injected i.p., it was determined if Compound 8C is orally available. For oral administration, Compound 8C was formulated in 20% tween 80 in PBS (v/v) after brief sonication. Mice received 100 mg/kg by oral gavage. The concentrations of Compound 8C in tumor and plasma samples at 7 hours, 15 hours and 24 hours were determined and are plotted in FIG. 8B.
For intraperitoneal injection Compound 8C was formulated at 10 mg/mL in PBS with 5% DMSO by adjusting the pH to 5.5. For oral administration, a homogenous suspension was prepared in 20% tween 80 upon brief sonication. Initially, a single 100 mg/kg dose of Compound 8C was given i.p. (FIG. 8A) or gavaged into nude mice bearing human NCI-H1975 tumor xenografts (>150 mm3) (FIG. 8B). Mice were euthanized at time 0, 30 minutes, 1 hour, 3 hours, 7 hours, 15 hours, and at 24 hours. Tumor and plasma samples were collected. In case of mice orally gavaged, plasma and tumor samples were collected only at 7 hours, 15 hours and at 24 hours. The concentration of Compound 8C in plasma and tumor was determined and the resulting data are plotted in terms of molar concentration.

[5] = system: UMSCC74B; test: UMSCC74B head and neck tumor model, daily for one week; type: in vivo
Protocol: Efficacy testing of Compound 8C in UMSCC74B, an EGFR driven, aggressive tumor model of the head and neck. Tumor bearing mice were treated with 30 mg/kg dose daily (Monday-Friday) for one week. This dose was selected based on single dose PK profile (see FIG. 8A). This treatment was safe and produced significant tumor growth delay (see FIG. 10).
Nude mice bearing either UMSCC74B ([…]) were treated with (30 mg/kg, daily for one week) or with vehicle (5% DMSO in PBS). Each group had at least 5 mice. Tumor volume and body weight was recorded 3-4 times a week, and change in the average tumor volume with time is plotted. The average loss in body weight during treatment was less than 10%. Error bar represents standard error of the mean.
For the Compound 8C treatment group, day 0 is defined as the first day of treatment. In vehicle control mice, day 0 was defined as the day when the tumor volume was closest to the mean tumor volume in Compound 8C treatment groups on the day of treatment initiation. To assess whether tumor volume growth rates differed by treatment, mixed effect models were fit with random intercept terms at the mouse levels to account for correlated outcomes over time within a tumor and between 2 tumors within a mouse. Monotherapy elicited a significant reduction in tumor growth rate after one week of dosing (see FIG. 10).

[6] = system: isogenic 6-Ba/F3 cell types (TKI sensitive and resistant); test: Activity in isogenic Ba/F3 cell types

## CN1CCC2(CC1)N=C(SCC(=O)Nc1cnc3ccccc3c1)C(c1ccc(Br)cc1)=N2 [Compound 8C, 2-((3-(4-bromophenyl)-8-methyl-1,4,8-triazaspiro[4.5]deca-1,3-dien-2-yl)thio)-N-(quinolin-3-yl)acetamide]
[1]
  viability at 3.75 µM: 68%
[2]
  Percent Growth: −90.7%
[3]
  Percent Growth: −78.9%
[4]; 100 mg/kg i.p., single dose, for 30 minutes
  peak plasma concentration: 5.4 ± 1.5 µM
[4]; 100 mg/kg i.p., single dose, for ≥7 hours
  peak concentration achieved in the tumor: 69.7 ± 15.68 µM
[4]; i.p. injection
  tumor accumulation: selectively accumulates in the tumor
[4]; plasma, 100 mg/kg i.p., single dose, read-out: plasma half-life (converted)
  half-life: 7.96 h
[4]; tumor, 100 mg/kg i.p., single dose, read-out: half-life in the tumor
  half-life: > 24 h
[5]; 30 mg/kg dose daily (Monday-Friday) for one week
  safety of treatment: safe
[5]; 30 mg/kg, daily for one week
  average loss in body weight during treatment: less than 10%
[5]; 30 mg/kg, daily for one week, vs time-matched control (p=0.013) and overall control (p<0.001)
  tumor growth rates: significantly lower
[6]
  activity in each Ba/F3 cell line: active in the nanomolar range
